The values below are quoted from earlier work in US20020177585A1, “Uses of targeted oxidative therapeutic formulation in arteriosclerosis” (priority 2001, published 2002).

For data set [1], the system named is peroxide-sensitive E. coli. To be noted: infused into the blood of infected rabbits.
The next data set relates to E. coli. To be noted: increasing concentration of peroxide ex-vivo.

Regarding `OO` [hydrogen peroxide, Hydrogen peroxide], the bactericidal effect entry in data set [1] is given as “no bactericidal effect”. For the same molecule, the direct bactericidal activity entry in the data set on E. coli is on record as “no evidence of direct bactericidal activity”.
